Key:
[1] = tested on: platelet aggregation; test: In-vitro platelet aggregation in PRP (ADP-induced); assay type: cell-based, dogs; conditions: dog platelet-rich plasma; for IC50: ADP 50 um final concentration, IC50 by linear regression of the dose response curve
Protocol: Healthy male or female dogs were fasted for 8 hours prior to drawing blood; then 30 ml whole blood was collected using a butterfly needle and 30 cc plastic syringe with 3 ml of 0.129 M buffered sodium citrate (3.8%). The syringe was rotated carefully as blood was drawn to mix the citrate. Platelet-rich plasma (PRP) was prepared by centrifugation at 975 x g for 3.17 minutes at room temperature allowing the centrifuge to coast to a stop without braking. The PRP was removed from the blood with a plastic pipette and placed in a plastic capped, 50 mL Corning conical sterile centrifuge tube which was held at room temperature. Platelet poor plasma (PPP) was prepared by centrifuging the remaining blood at 2000 x g for 15 minutes at room temperature allowing the centrifuge to coast to a stop without braking. The PRP was adjusted with PPP to a count of 2-3 x 10^8 platelets per mL. 400 uL of the PRP preparation and 50 uL of the compounds solution to be tested or saline were preincubated for 1 minute at 37°C in a BioData, Horsham, PA). 50 uL of adenosine 5' diphosphate (ADP) (50 um final concentration) was added to the cuvettes and the aggregation was monitored for 1 minute. All compounds are tested in duplicate. Results are calculated as follows: Percent of control = [(maximal OD minus initial OD of compound) divided by (maximal OD minus initial OD of control saline)] x 100. The % inhibition = 100 - (percent of control).
The compounds tested and their median inhibitory concentrations (IC50) are recorded in Table I. IC50's (dosage at which 50% of platelet aggregation is inhibited) were calculated by linear regression of the dose response curve.

[2] = tested on: collagen induced platelet aggregation; test: Inhibition of ex vivo collagen induced platelet aggregation after administration to dogs; assay type: in vivo, dogs (Beagles); conditions: after 24 hours, administered orally to dogs at a dose of 20 mg/kg
Protocol: The purpose of this assay is to determine the effects of antiplatelet compounds on ex vivo collagen induced platelet aggregation when administered either intravenously or orally to dogs.
Pretreatment (control) blood samples are drawn from either conscious or anesthetized dogs (Beagles) and centrifuged to prepare platelet rich plasma (PRP). Aggregatory response to collagen is measured in a aggregometer and used as Control. Compounds are administered, either intragasterically (either by capsule or stomach tube or intravenously). Blood samples are drawn at predetermined intervals after compound administration, PRP prepared and aggregation to collagen determined. Compound inhibition of aggregation is determined by comparing the aggregation response after compound administration to the pretreatment response. The study is continued for a maximum of 24 hours or until the platelet aggregation returns to control levels. (If aggregation is still inhibited after 7 hours, a blood sample is drawn the following morning and tested.) Duration of activity is determined by the length of time platelet aggregation is inhibited after compound administration.

Compound	IC50 ([1]; Canis lupus familiaris) [nM]	IC50 [1] [nM]	further results
N=C(N)c1ccc(NC(=O)CCC(=O)NC(CC(=O)O)c2cccnc2)cc1 (racemic) [Example 2, D,L-β-[[4-[[4-(aminoiminomethyl)phenyl]amino]-1,4-dioxobutyl]amino]-3-pyridinepropanoic acid]	93		
N=C(N)c1ccc(NC(=O)C2CC2C(=O)NC(CC(=O)O)c2cccnc2)cc1 (single isomer, unassigned; isomer 2) [Example 27]	> 10000		
CCOC(=O)C[C@H](NC(=O)CCC(=O)Nc1ccc(C(=N)N)cc1)c1cccnc1 [Example 4, Ethyl βS-[[4-[[4-(aminoiminomethyl)phenyl]amino]-1,4-dioxobutyl]amino]-3-pyridinepropanoate]			inhibited platelet aggregation [2]: up to 100%
N=C(N)c1ccc(NC(=O)CCC(=O)N[C@@H](CC(=O)O)c2cccnc2)cc1 [Example 5, βS-[[4-[[4-(aminoiminomethyl)phenyl]amino]-1,4-dioxobutyl]amino]-3-pyridinepropanoic acid]	47		
N=C(N)c1ccc(NC(=O)CCC(=O)NC(CC(=O)O)c2ccccn2)cc1 (stereo not drawn) [Example 8]	290		
N=C(N)c1ccc(NC(=O)CCC(=O)NC(CC(=O)O)c2ccncc2)cc1 (stereo not drawn) [Example 10]	160		
N=C(N)c1ccc(NC(=O)C2CCCCC2C(=O)NC(CC(=O)O)c2cccnc2)cc1 (stereo not drawn) [Example 14]			inhibition at 10 µM ([1]; Canis lupus familiaris, at 10^-5, ADP-induced aggregation, read-out: Dog PRP IC50 (cell prints inhibition at a single concentration)): 0%
N=C(N)c1ccc(NC(=O)CCC(=O)NC(CC(=O)O)c2ccc3c(c2)OCO3)cc1 (stereo not drawn) [Example 20, β-[[4-[[4-(aminoiminomethyl)phenyl]amino]-1,4-dioxobutyl]amino]-1,3-benzodioxole-5-propanoic acid]	68		
CCOC(=O)CC(NC(=O)CCC(=O)Nc1ccc(C(=N)N)cc1)c1cc2c(cc1[N+](=O)[O-])OCO2 (stereo not drawn) [Example 21]	> 10000		
N=C(N)c1ccc(NC(=O)CCC(=O)NC(CC(=O)O)c2cncnc2)cc1 (stereo not drawn) [Example 22]	59		
N=C(N)c1ccc(NC(=O)CCC(=O)NC(CC(=O)O)c2cc3c(cc2[N+](=O)[O-])OCO3)cc1 (stereo not drawn) [Example 34]	1200		
(±) [[[4-[[4-(aminoiminomethyl)phenyl]-amino]-1,4-dioxo-(2E)-butenyl]amino]-3-pyridinepropanoic acid [Example 29]		110	
(±)-1[[[4-[[4-(aminoiminomethyl)phenyl]amino]-1,4-dioxo-(2Z)-butenyl]amino]-3-pyridinepropanoic acid [Example 30]		> 10000	
Ethyl β-[[4-[[4-(aminoiminomethyl)phenyl]amino]1,4-dioxobutyl]amino]-1,3-benzodioxole-5-propanoate (isomer 1) [Example 31]		7300	
Ethyl β-[[4-[[4-aminoiminomethyl) phenyl]amino]-1,4-dioxobutyl]amino]-1,3-benzodioxole-5-propanoate [Example 19]		> 10000	
Ethyl-β-[[4-[[4-(aminoiminomethyl)phenyl] amino]-1,4-dioxobutyl]amino]-3-pyridinepropanoate [Example 1]			inhibited platelet aggregation [2]: up to 100%
β-[[4-[[3-(aminoiminomethyl)phenyl]amino]-1,5-dioxopentyl]amino]-3-pyridinepropanoic acid [Example 3]		> 10000	
β-[[4-[[4-(aminoiminomethyl)phenyl]amino]-1,4-dioxobutyl]amino]-1,3-benzodioxole-5-propanoic acid [Example 33]		6800	
β-[[4-[[4-(aminoiminomethyl)phenyl]amino]-1,4-dioxobutyl]amino]-2-furanpropanoic acid [Example 16]			inhibited platelet aggregation [2]: up to 100%
β-[[4-[[4-(aminoiminomethyl)phenyl]amino]-1,4-dioxobutyl]amino]-2-thiophenepropanoic acid [Example 18]		120	
βR-[[4-[[4-(aminoiminomethyl)phenyl]amino]-1,4-dioxobutyl]amino]-3-pyridinepropanoic acid [Example 7]		4800	

Reference: patent EP0630366B1, “SUBSTITUTED HETEROCYCLIC DERIVATIVES USEFUL AS PLATELET AGGREGATION INHIBITORS” (G.D. Searle & Co., priority 1991, dated 1993)
